# Data published in patent US8349801B2, “Peptide ligands for G-protein coupled receptors” (priority 2006, dated 2013).
# No end group written: not given here.
# What was measured:
# [1] = test system: aortic rings from Wistar rat; test: Vasorelaxant activity in phenylephrine pre-contracted aortic rings
# Source text: Male Wistar rats of the age of 13-14 weeks (body weight: 250 to 300 g) were used. The rats were exposed to light-dark cycle of 12 hs (day—06:00 to 18:00; night—18:00 to 06:00) controlled by timer. Rats were killed by decapitation and exsanguination and tissues were rapidly removed.
# Rings (3-4 mm) from the descending thoracic aorta, free of adipose and connective tissue, were set up in gassed (95% O2 and 5% CO2) Krebs-Henseleit solution (mmol/L): NaCl 110.8, KCl 5.9, NaHCO3 25.0, MgSO4 1.07, CaCl2 2.49, NaH2PO4 2.33 and glucose 11.51, at 37° C., under a tension of 1.0 g, for 1 hour to equilibrate. The presence of functional endothelium was assessed by the ability of Acetylcholine (1 μM) to induce more than 70% relaxation of vessels pre-contracted with phenylephrine (0.3 μM) (Lemos et al., 2005). When necessary, the endothelium was removed by rubbing the intimal surface with a wooden stick. Mechanical activity, recorded isometrically by a force transducer (Panlab, model number TR1210, Spain), was fed to an amplifier-recorder (Powerlab 4/20, ADInstruments, Inc.) and to a personal computer equipped with an analogue-to-digital converter board (AD16JR; World Precision Instruments, Inc.), using CVMS data acquisition/recording software (World Precision Instruments, Inc.).
# The vasorelaxant activity of peptides —P61_S (SEQ ID NO:10), P61 (SEQ ID NO.9)-dimer (P61_D), P33_V (SEQ ID NO:7) and P33 (SEQ ID NO:6)-dimer (P33_D) were measured in vessels (N=5-8) with or without functional endothelium pre-contracted to the same tension level (approximately 1.5 g of tension) induced by submaximal concentrations of phenylephrine (0.01 μM). For comparison, the effect of Ang-(1-7) was also tested (N=4)
# P61_S (SEQ ID NO:10), P61 (SEQ ID NO9)-dimer (P61_D), P33_V (SEQ ID NO:7) or P33 (SEQ ID NO:6)-dimer (P33_D) were added in increasing cumulative concentrations (0.0001 to 1 μM) once the response to phenylephrine had stabilized (FIG. 28). In order to verify the participation of endothelium-derived products in the relaxant effect of peptides, experiments were performed in the presence of 100 μM N′-Nitro-L-Arginine Methyl Ester-[L-NAME]—a nonselective inhibitor of nitric oxide synthase. In experiments performed in the presence of L-NAME, vessels were pre-contracted with 0.03 μM of phenylephrine, to achieve the same tension level as the others. L-NAME was added to the bath 20 min prior to the addition of phenylephrine.
# Results are presented as mean±SEM. Two-way analysis of variance (ANOVA) with Bonferroni multiple comparison post-test was used to compare concentration response curves obtained in aortic rings. The vasodilator effect of P61_S (SEQ ID NO:10), P61 (SEQ ID N09)-dimer (P61_D), P33_V (SEQ ID NO:7), P33 (SEQ ID NO:6)-dimer (P33_D) and Ang-(1-7) were expressed as percentage decrease in maximal contraction induced by phenylephrine. All statistical analyses were considered significant when p<0.05.
# Mas receptor = molecular target: T1, Mas receptor (Homo sapiens, UniProt P04201); test: Calcium flux in CHO-K1 cells co-transfected with Mas receptor and Gα16; type: cell-based; details: dose response
# T1 construct: expressed in transfected cells; host or cells: CHO-K1 (ATCC-CCL-61), transient co-transfection
# T1 sequence (P04201 1-325): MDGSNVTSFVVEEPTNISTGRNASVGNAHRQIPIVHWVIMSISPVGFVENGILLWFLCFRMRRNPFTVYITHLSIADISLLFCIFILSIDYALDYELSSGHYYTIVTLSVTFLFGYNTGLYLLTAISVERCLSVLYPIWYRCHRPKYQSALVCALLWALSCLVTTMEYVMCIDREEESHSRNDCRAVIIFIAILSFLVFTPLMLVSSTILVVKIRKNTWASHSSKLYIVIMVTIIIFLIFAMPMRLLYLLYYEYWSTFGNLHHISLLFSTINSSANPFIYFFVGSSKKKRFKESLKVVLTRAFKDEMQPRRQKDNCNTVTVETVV
# Protocol: The assay was carried out in CHO cells were transiently transfected with the GPCR of choice, by utilizing the promiscuous Gα16 to divert signaling to the Gq pathway, thus enabling readout of GPCR activation by testing for Calcium flux as described by Liu et al 2003 (Biomol Screen 8, 39-49).
# All the peptides thus obtained were tested for their ability to change calcium flux in CHO—K1 cells (ATCC-CCL-61) transiently co-transfected with an expression vector containing the GPCR of choice and expression vector containing the Gα16 encoding cDNA. Expression constructs containing cDNA clones for MrgX1, MrgX2, Mas or FPRL1 were commercially obtained in one of the following expression vectors: pcDNA3.1, pCMV6, or MO2.
# Transient transfections were performed using CHO—K1 cells as host cells. Cells (12 million) were plated into T75 flasks on the day preceding transfection. Cells were transfected with the appropriate GPCR expression vector and with a vector expressing Gα16 using a lipid-based reagent, MTI, according to the manufacturer's recommendation. Cells were transfected for 5 hours, then re-plated into 96-well dishes (60,000 cells per well) and grown overnight.
# On the day of the experiment, cells were loaded with Fluo4-NW (Invitrogen) according to the manufacturer's recommendation. Plates were loaded into a FlexStation™ (Molecular Devices) plate reader and fluorescence was monitored. Seventeen seconds following initiation of reading, cells were stimulated with the indicated agonist/compound at final concentration of 1 μM. Each 96 well plate contained cells transfected with one GPCR expression vector and each of the examined peptides was tested in triplicate.
# We defined a hit as a peptide which elicited a clear and distinct increase in intracellular calcium that is clearly visible and statistically significant upon examination of the calcium trace for at least two repeats. The criterion for statistical significance was a p-value lower than 0.001 in a t-test comparing the levels of calcium before and after peptide addition.
# Based on dose response experiments, EC50 best fit values were calculated by non-linear regression of sigmoidal dose-response curves, using Prism version 4 (GraphPad Software Inc., San Diego, Calif.). The formulae for the sigmoidal dose-response curves was defined as Y=Bottom+(Top−Bottom)/(1+10^ (LogEC50−X)*HillSlope))
# The ability of Peptides to change calcium flux was examined in CHO—K1 cells co-transfected with Mas receptor and Gα16.
sequence,measurement,setting,value
FLGYCIYLNRKRRGDPAFKRRLRD (also: dimer via cysteine; listed as Homo sapiens) [Peptide P61_dimer],vasodilator effect in the presence of L-NAME,"[1]; 100 μM L-NAME, NO synthase inhibitor",markedly inhibited
same,vasodilator effect in the absence of functional endothelium,[1]; endothelium-denuded vessels,abolished
same,Maximal values for the relaxant effect (Emax),"[1]; vessels with endothelium, 0.0001 to 1 μM cumulative, mean±SEM",20.45±5.11%
same,"ability to induce calcium flux, P61-related peptides compared",Mas receptor,more potent than the monomeric P61 peptides
